According to patent publication US5708000A, “N4-substituted cytosinyl 1,3-oxathiolane nucleoside analogues, and their antiviral activity” (Laboratoire Laphal, priority 1994, dated 1998):
Read-outs that look alike come from different tables or passages of the source.

Columns and labels:
[1] = test system: HIV-1 virus (BRU) in MT4 cells; test: Anti-HIV test: inhibition of HIV-1 replication (syncitia formation) in infected MT4 cells; assay type: cell-based
Text: The evaluation of the antiviral action is based on the study of cytopathogenic effect of HIV-1 Virus on the cell line MT4. The cell line MT4 has as an origin T cells isolated from a patient, transformed by the […]. The cytopathogenic effect of HIV-1 virus is shown by the formation of multinucleated giant cells called <> visible under the microscope. This effect of HIV-1 is observed 4 to 5 days after infection. It is followed with the death of cells.
The cytopathogenic effect is directly correlated to the infection of the cells by the virus, to its intracellular replication and to the expression of viral antigens by the cells. An inhibition of this effect thus corresponds to an inhibition of the multiplication of HIV-1 virus.
The MT4 cells are maintained at 3.10^5 cells/ml in a RPMI 1640 medium : 10% of decomplemented fetal calf serum for 30 mn at 56° C. (hormons, serum growth factors . . . ), 1% glutamine, 1% penicillin streptomycin and 2 μg/ml Polyren which promotes the viral adhesion to the cells.
The action of the treatment by the anti-viral agent is continuous. In fact this effect is present before during and after the viral infection. Successive dilutions are performed in the 10% fetal calf serum to be able to cultivate the MT4 cells for 8 days and to observe the formation of syncithias.
Before infection : 3×10^6 cells/100 μl are distributed in a microtiter plate with 96 wells and centrifugated for 3 min. at 2000 rpm (rounds per minute). The pellet is then pre-incubated for 1 hour at 37° C., with 100 μl of various concentrations of the anti-viral agent to be tested.
Infection : The infection is achieved in microwells while adding 100 TCIU (infection units) of HIV-1 virus (this titer of HIV-1 virus is determined as to induce the formation of syncithias in 4 or 5 days). The anti-viral agent is always present at the time of infection and dilution of the virus at 100 TCIU.
After infection : After incubation for 1 hour at 37° C., the MT4 cells are washed three times with RPMI 1640 medium and cultured on account of 3.10^5 cells per milliliter of each of the concentration of the compounds to be tested on plates of 24 wells. When passing at day D3 the MT4 cells are diluted to 1/3. The concentration of the anti-viral agent is maintained. Each day occurrence of syncithia is observed under the microscope to detect any optional delay with respect to the controls HIV-1. At day D8 the determination of reverse transcriptase is carried out. When the cells are not infected thus it is a protection by the tested anti-viral agent.
The compounds the synthesis of which has been described in this patent application and the related structures given in the previous prior art, have an affect on the inhibition of the replication of BRU HIV-1 virus (BRU beeing the vital strain experienced) in the case where the infected cells are of the type MT4.
In the table I they have been described the results of the tests. Column 1 provides the names of the most representative studied compounds and in column 2 they are reported the so-called IC50 values (concentration of the component giving a 50% inhibition of the replication of HIV in the infected MT4 cells, measured at day D7 after infection). In observing and counting the number of formed syncitia in relation with that counted in the case of infected MT4 cells but untreated with antiviral compound, the value IC50 is determined.

[2] = test system: duck hepatitis B virus (DHBV); test: Anti-HBV test: effect on the replication of the duck hepatitis B virus (DHBV) in infected duck hepatocytes (viral DNA); assay type: cell-based; conditions: Hepatocyte, 240 h, read-out: IC50, inhibition of the replication of DHBV virus
Text: Among the several methodologies used for evaluating the activity of compounds on Hepatitis B virus (HBV), the pattern of Hepatitis B virus of the duck (Duck HBV) has been utilized (J. Med. Virology (1990) 31 82-89; Viral Hepatitis and Liver disease (1988) 506-509; Hepatology (1989) 10 186-191). The material of culture to test <<in vitro>> the anti HBV activity of the compounds is made of duck hepatocytes infected by the duck Hepatitis B virus (DHBV) (Antimicrob. Agents Chemother. (1989) 33 336-339; J. Med. Virology 40,59-64; Antivir Res. (1993) 21, 155-171; Antimicrob. Agents Chemother. (1993) 37 1539-1542). Indeed the Hepatitis B virus of the duck is recognized as being very close to the human hepatitis B virus (Viral Hepatitis and Liver Disease (1988) 526-529. Antiviral Research (1987) 8189-199). Under standardized conditions (Virology (1989) 171 564-572) the cultures of duck hepatocytes allow the complete replication of DHBV. The antiviral activity of the tested compounds has been measured as a function of the amount of viral DNA produced during 10 days of culture of the infected hepatocytes.
A young male duck 3 weeks old, affected by DHBV, is used for the production of hepatocytes. The duck is killed under anesthesia and the isolation of hepatocytes is carried out using the methodology of Guillouzou (Research in isolated and cultured hepatocytes, J. Libbey Eurotex Ltd / INSERM, 1986). The cells are cultured in the Leibowitz's medium and 5 μg/ml bovine insuline, 7×10^-5 mole cortisone hemisuccinate and 1,5% dimethylsulfoxide (DMSO) are added thereto. The density of the cells is 8×10^6 cells, they are sprayed in culture boxes of 100×20 mm. The tested compounds are added to the culture after the spread out of the cells. The medium is renewed every day, during 10 days. The production of viral DNA of the duck hepatitis B virus in the cells surpernatant is determined by means of hybridation method "Dot blot" according to Fourel and al. (Viral Hepatitis and Liver Disease, 1988, 506-509; Hepatology, 1989, 10, 186-191). Inhibition is expressed as a percentage of the DNA amount present on the supernatant of cells with regard to a culture infected by DHBV untreated with a nucleosidic derivative.
The most representative described compounds have been tested for their effect on the replication of the duck virus HBV (DHBV) along the protocol exposed in the experimental part of this document.

[3] = Human immunodeficiency virus 1, BRU HIV-1, MT4 cells, syncitia count, day D7 after infection, read-out: IC50 (concentration giving a 50% inhibition of the replication of HIV in the infected MT4 cells)
[4] = duck hepatocytes infected by DHBV, viral DNA in supernatant, dot blot, 10 days of culture

Compound | IC50 [1, 3] | IC50 [2, 4] | IC50 [2] | IC50 ([1]; Human immunodeficiency virus 1, MT4, read-out: IC50 (concentration giving a 50% inhibition of the replication of HIV in the infected MT4 cells))
O=C(Nc1ccn([C@@H]2CS[C@H](CO)O2)c(=O)n1)c1cccnc1Nc1cccc(C(F)(F)F)c1 (relative stereo) [Compound 11, cis 2-hydroxymethyl-5-[N^4-(2-(a,a,a-trifluoro-m-toluidino)nicotinyl)-cytosin-1'yl]-1,3-oxathiolane] | < 100000 nM |  |  | 
O=C(Nc1ccn([C@@H]2CS[C@H](CO)O2)c(=O)n1)c1cnc2ccccc2c1 (relative stereo) [Compound 8] | 10000 nM | 2000 nM |  | 
O=C(Nc1ccn([C@@H]2CS[C@H](CO)O2)c(=O)n1)c1cccnc1 (relative stereo) [Compound 2, Cis 2-(hydroxymethyl)-5 [N^4-(3"-pyridinylcarbonyl)cytosin-1'-yl]-1,3-oxathiolan] | 100 to 1000 nM | 2000 ± 500 nM |  | 
CN1C=C(C(=O)Nc2ccn([C@@H]3CS[C@H](CO)O3)c(=O)n2)Cc2ccccc21 (relative stereo) [Compound 10, cis 2-hydroxymethyl 5-[N^4-(1"-methyl 1", 4"-dihydro 3"-quinolinylcarbonyl)cytosin-1'yl]-1,3-oxathiolane] | 1000 to 10000 nM | 2000 nM |  | 
C[n+]1cc(C(=O)Nc2ccn([C@@H]3CS[C@H](CO)O3)c(=O)n2)cc2ccccc21 (relative stereo) [Compound 9, cis 2-hydroxymethyl 5-[N^4-(1"-methyl 3"-quinolinyicarbonyl)cytosin-1'yl]-1,3-oxathiolane] |  |  | 2000 nM | > 100000 nM
Nc1ccn([C@H]2CS[C@@H](CO)O2)c(=O)n1 [BCH-189, 2',3'-dideoxy 3'-thiacytidine, reference compound] | 1000 nM | 1000 ± 500 nM |  | 
